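The compound was tested at five concentrations on cells cultured in 96-well plates, with a 48-hour exposure period. The concentration for 50% growth inhibition is given as GI50. Definition used: TGI = concentration required for complete inhibition of growth.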 Where a SMILES comes first, the peptide text is derived from it. The star is where a group is joined. Fmoc = O=C(OCC1c2ccccc2-c2ccccc21)*; OBn = c1ccc(CO*)cc1; tBu = CC(C)(C)*
Experiments:
Assay in all cases: NCI tumour cell line growth inhibition, 48 h
[1] = tested on: A498 renal
[2] = tested on: ACHN renal
[3] = tested on: BT-549 breast
[4] = tested on: COLO 205 colon
[5] = tested on: IGROV1 ovarian
[6] = tested on: MCF7 breast
[7] = tested on: NCI-H226 lung
[8] = tested on: SF-295 CNS
[9] = tested on: SK-OV-3 ovarian
[10] = tested on: TK-10 renal

SMILES	TGI [1] [µM]	TGI [2] [µM]	TGI [3] [µM]	TGI [4] [µM]	TGI [5] [µM]	TGI [6] [µM]	TGI [7] [µM]	TGI [8] [µM]	TGI [9] [µM]	TGI [10] [µM]	GI50 [1] [µM]	GI50 [2] [µM]	GI50 [3] [µM]	GI50 [4] [µM]	GI50 [5] [µM]	GI50 [6] [µM]	GI50 [7] [µM]	GI50 [8] [µM]	GI50 [9] [µM]	GI50 [10] [µM]
COc1cc2c(cc1OCCN1CCN(CCOc3cc4c(cc3OC)C(=O)N3CCC[C@H]3C=N4)CC1)N=C[C@@H]1CCCN1C2=O	> 72.5	> 91.6	> 79.1	> 90.4	> 78.3	> 100	66.2	67.3	> 100	87.8	–	–	–	–	–	–	–	–	–	–
CSC1=C(C)C(/C=N/Nc2ccc([N+](=O)[O-])cc2)=C(C)N(c2ccccc2)S1(=O)=O	> 100	> 100	> 100	> 100	> 100	> 100	> 100	> 100	> 100	> 100	–	–	–	–	–	–	–	–	–	–
CC(OC(C)(C)C)C(NC(=O)OCC1c2ccccc2-c2ccccc21)C(=O)NC(Cc1ccccc1)C(=O)OCc1ccccc1 (stereo not given) (Fmoc-Thr(tBu)-Phe-OBn; configuration not given here)	> 100	> 100	> 100	> 100	> 100	> 100	> 100	> 100	> 100	> 100	–	–	–	–	–	–	–	–	–	–
COc1ccccc1-c1cc(=O)c2cccnc2[nH]1	> 100	> 100	> 100	96	> 100	> 100	> 100	> 100	> 100	> 100	–	–	–	–	–	–	–	–	–	–
Oc1ccccc1/C=N/c1nc(-c2ccccc2)cs1	> 100	> 100	> 100	> 100	> 100	40.8	> 100	> 100	> 100	> 100	77	32.2	59.5	57.7	> 100	14.1	35.1	> 100	> 100	33
C[N+](C)([O-])C12CC3CC(CC(C3)C1)C2	67.7	> 100	> 100	70.9	> 100	> 100	> 100	> 100	> 100	88	–	–	–	–	–	–	–	–	–	–
CCOC(=O)NC(Nc1ccc(C(=O)O)cc1)(C(F)(F)F)C(F)(F)F	> 100	> 100	> 100	> 100	> 100	> 100	> 100	> 100	> 100	> 100	–	–	–	–	–	–	–	–	–	–
COc1cc2ccc(C(C)NCC#N)cc2cc1OC (stereo not given)	> 100	> 100	> 100	> 100	> 100	> 100	> 100	> 100	> 100	> 100	–	–	–	–	–	–	–	–	–	–
CCOC(=O)CC1C(C(=O)OCC)=Cn2c([nH]c3cccc4cccc2c43)=C1C(=O)OCC (stereo not given)	> 100	> 100	> 100	> 100	> 100	> 100	> 100	> 100	> 100	> 100	–	–	–	–	–	–	–	–	–	–
CC[P+](c1ccccc1)(N(C)C)N(C)C	> 100	> 100	> 100	> 100	> 100	> 100	> 100	> 100	> 100	> 100	–	–	–	–	–	–	–	–	–	–
COc1ccc(C2CC(c3cccc(Nc4ccncc4)c3)=NN2c2ccccc2)cc1 (stereo not given)	9.69	3.28	20.6	6.14	3.51	4.01	8.83	3.32	20.9	4.43	1.41	1.81	4.94	2.66	1.81	1.87	2.31	1.8	5.53	2.12
CCCCCCCCCCCCCCCCOC[C@H](COC(c1ccccc1)(c1ccccc1)c1ccccc1)O[P+](=S)OC (stereo not given in full)	> 100	> 100	> 100	> 100	> 100	> 100	> 100	> 100	> 100	> 100	–	–	–	–	–	–	–	–	–	–
C=C(CCC(=O)N(CCc1c[nH]c2ccccc12)C(=O)c1ccccc1CSCC)C(=O)OC	> 100	> 100	> 100	54.6	> 100	> 100	> 100	> 100	> 100	> 100	–	–	–	–	–	–	–	–	–	–

— PubChem BioAssay (NCI)
